From ChEMBL document CHEMBL1129183, “Correlation of oxidation potential and toxicity in thiobenzamides” (Bioorg Med Chem Lett, 1996)

Test: Lethal dose to rats was determined
Type: toxicity
Details: rat, in vivo

SMILES | Dose [mM/kg]
Cc1ccc(C(N)=S)cc1 | 2
COc1ccc(C(N)=S)cc1 | 2
